Patent publication US20050032787A1, “Pheny (alkyl)carboxylic acid derivatives and dionic phenylalkylheterocyclic derivatives and their use as medicines with serum glucose and/or serum lipid lowering activity” (priority 2002, published 2005)
Structures can show the parent of a compound that is named as a salt. Marks after values point to notes of the source that are not given here.

Columns and labels:
[1] = test system: 3T3-L1 cells; assay: Determination of glucose consumption in differentiated 3T3-L1 cells; type: cell-based, mouse; conditions: 22 hours, glucose 25 mM, insulin 0.25 nM, concentrations assayed 1, 5, 10, 25 μM
Experimental: Determination of Glucose Consumption in 3T3-L1 Cells
Glucose consumption was assessed in differentiated 3T3-L1 cells.
Mouse fibroblasts (3T3-L1) were seeded at a density of 5×10^3/cm^2 and cultured on 12-well plates in 1 ml of DMEM containing glucose 25 mM and added with 10% CS, glutamine 4 mM, pyruvate 1 mM, penicillin 50 U/ml, and streptomycin 50 μg/ml, in an atmosphere humidified with 5% CO2 at 37° C.
Two to three days after confluence, differentiation was induced with the addition of 1.5 ml of DMEM containing 3-isobutyl-1-methylxanthine (IBMX) 0.5 mM, dexamethazone 1 μM and porcine insulin 10 μg/ml in glucose 25 mM and 10% FBS.
After 2 days, the cells were exposed to the same medium without IBMX and dexamethazone for another 2 days. […]
The cells were used 10-12 days after induction of differentiation, as monitored by evaluating triglyceride accumulation. […]
The analysis of the glucose in the medium was done with the aid of a Cobas Mira S autoanalyzer (Roche), using the HK 125 Glucose Kit (ABX Diagnostics). The glucose concumprion stimulated by the products was evaluated as % increase compared to the control compound. […]

[2] = test system: C57BL/KsJ db/db mice; assay: Antidiabetic and serum lipid lowering activity in db/db mice; conditions: oral twice daily for a fortnight, rosiglitazone 5 mg/kg, Example 22 25 mg/kg, vs control; for Reduction of glucose levels % / Reduction of triglyceride levels %: serum 7 hours after last treatment; for Change in GPT levels % / Change in HDL-cholesterol levels %: serum

SMILES	melting point	further results
COC(=O)C(Cc1cccc(OC(=O)NCc2ccc(OC)cc2)c1)C(=O)OC	62 to 64 °C	–
O=C1NC(=O)C(=Cc2cccc(OCCc3ccc(Cl)cc3)c2)S1 [Example 46, 5-[3-[2-(4-chlorophenyl)ethoxy]phenylmethylene]thiazolidine-2,4-dione]	186 to 187 °C	–
CN(CCOc1ccc(CC2SC(=O)NC2=O)cc1)c1ccccn1 (centres unmarked) [Rosiglitazone, rosiglitazone, reference compound]	–	lowest concentration of those assayed to induce a 40% increase in glucose consumption [1]: 5 µM; Reduction of glucose levels % [2]: −36 Δ %; Reduction of triglyceride levels % [2]: −41 ▴ %; Change in GPT levels % [2]: +117 ▴ %; Change in HDL-cholesterol levels % [2]: −7%
O=C1NC(=O)C(Cc2ccc(OCCc3ccc(Cl)cc3)cc2)S1 (centres unmarked) [Example 21, 5-[4-[2-(4-chlorophenyl)ethoxy]phenylmethyl]-thiazolidine-2,4-dione]	147 to 148 °C	–
COC(=O)C(Cc1ccc(OC(=O)Nc2ccc(Cl)cc2Cl)cc1)C(=O)OC	84 °C	–
CCCCc1ccc(NC(=O)Oc2ccc(CC(C(=O)OC)C(=O)OC)cc2)cc1	90 to 92 °C	–
COC(=O)C(Cc1cccc(OCCc2ccc(Cl)cc2)c1)C(=O)OC [Example 22, dimethyl 3-[2-(4-chlorophenyl)ethoxy]-benzylmalonate]	–	lowest concentration of those assayed to induce a 40% increase in glucose consumption [1]: 1 µM; Weight gain % [2]: +16 ▴ %; Reduction of glucose levels % [2]: −32 Δ %; Reduction of triglyceride levels % [2]: −47 ▴ %; Change in GPT levels % [2]: +38 ▴ %; Change in HDL-cholesterol levels % [2]: +37 ▴ %
O=C1NC(=O)C(Cc2cccc(OCCc3ccc(Cl)cc3)c2)S1 (centres unmarked) [Example 47, 5-[3-[2-(4-chlorophenyl)ethoxy]phenylmethyl]thiazolidine-2,4-dione]	90 to 91 °C	–
COC(=O)C(Cc1cccc(OC(=O)Nc2ccc(Cl)cc2)c1)C(=O)OC	79 to 80 °C	–
COC(=O)C(=Cc1ccc(OCCn2ccc3ccccc32)cc1)C(=O)OC [Example 3, dimethyl 4-[2-(1-indolyl]ethoxy]benzylidenemalonate]	68 to 70 °C	–
COC(=O)CCc1ccc(OCCn2ccc3ccccc32)cc1 [Example 8, methyl 3-[4-[2-(1-indolyl)ethoxy]phenyl]-propanoate]	85 °C	–
COC(=O)C(Cc1ccc(OC(=O)NCc2ccc(OC)cc2)cc1)C(=O)OC (as salt: malonate)	78.6 °C	–
O=C(O)C(Cc1ccc(OCCn2ccc3ccccc32)cc1)C(=O)O [Example 5, 4-[2-(1-indolyl)ethoxy]benzylmalonic acid]	112 to 114 °C	–
O=C1NC(=O)C(=Cc2ccc(OCCc3ccc(Cl)cc3)cc2)S1 [Example 20, 5-[4-[2-(4-chlorophenyl)ethoxy]phenylmethylene]thiazolidine-2,4-dione]	202 to 203 °C	–
CCOC(=O)[C@H](Cc1ccc(OC(=O)NCc2ccc(OC)cc2)cc1)NC(=O)c1ccccc1	149 to 151 °C	–
COC(=O)C(Cc1ccc(OCCc2ccc3ccccc3c2)cc1)C(=O)OC [Example 29, dimethyl 4-[2-(2-naphthyl)ethoxy]benzyl-malonate]	68.5 °C	–
COC(=O)C(O)Cc1ccc(OCCn2ccc3ccccc32)cc1 (centres unmarked) [Example 12, methyl 2-hydroxy-3-[4-[2-(1-indolyl)ethoxy]-phenyl]propanoate]	70 to 72 °C	–
COC(=O)C(Cc1ccc(OC(=O)Nc2ccc([N+](=O)[O-])cc2)cc1)C(=O)OC	128 to 130 °C	–
COC(=O)C(Cc1ccc(OC(=O)Nc2ccc(Cl)cc2)cc1)C(=O)OC	125 to 127 °C	–
COC(=O)Cc1ccc(OCCn2ccc3ccccc32)cc1 [Example 9, methyl 2-[4-[2-(1-indolyl)ethoxy]phenyl]acetate]	50 to 52 °C	–
